Converted amounts (≈) assume the structure as drawn.

Our source for the IC50, melting point and MIC values is paper PMC7464559, “Synthesis, Optimization, Antifungal Activity, Selectivity, and CYP51 Binding of New 2-Aryl-3-azolyl-1-indolyl-propan-2-ols” (Pharmaceuticals, 2020).

A short description of one data set: MRC5 toxicity assay. The data set is classed as cell-based, human. The note with it: human, MRC-5 human fetal lung fibroblast cells, MRC-5 cells, 96-h incubation, mean of triplicate; read-out: Cytotoxicity IC50 on MRC-5 cells. A digest of the protocol:
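MRC5 fibroblasts in RPMI 1640 with 10% FBS were exposed to compounds at 100, 10 and 1 µM in triplicate for 96 h. Viability was read by Uptiblue fluorescence after a 4-h dye incubation. IC50 is the mean of triplicates, and toxicity index = MRC5 IC50 / geometric mean MIC against Candida spp.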

In data set [1] the target is T1, retinoic acid 4-hydroxylase (CYP26A1) (Homo sapiens, UniProt O43174).
T1 construct: endogenous in cells; host or cells: MCF-7 human breast cancer cells
T1 sequence (O43174 1-497): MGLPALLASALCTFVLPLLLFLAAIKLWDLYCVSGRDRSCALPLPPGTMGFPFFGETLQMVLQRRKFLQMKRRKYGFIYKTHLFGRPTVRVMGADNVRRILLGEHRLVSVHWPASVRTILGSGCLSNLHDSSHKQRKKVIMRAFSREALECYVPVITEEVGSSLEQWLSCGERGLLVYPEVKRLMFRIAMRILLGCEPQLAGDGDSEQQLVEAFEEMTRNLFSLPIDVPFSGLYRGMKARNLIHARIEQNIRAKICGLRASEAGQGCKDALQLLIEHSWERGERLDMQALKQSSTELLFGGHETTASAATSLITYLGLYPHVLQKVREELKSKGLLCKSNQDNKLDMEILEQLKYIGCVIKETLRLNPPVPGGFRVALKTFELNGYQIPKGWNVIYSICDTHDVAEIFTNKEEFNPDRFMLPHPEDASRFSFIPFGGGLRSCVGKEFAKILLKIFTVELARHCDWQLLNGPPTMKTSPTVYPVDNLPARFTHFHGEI
The data set can be described thus: MCF-7 cellular assay for inhibition of metabolism of all-trans retinoic acid. Conditions: mean (±5%) of two experiments. The data set is classed as cell-based.
Description: The HPLC system was equipped with a high-pressure pump (Milton–Roy pump, Stone, UK), injector with a 50 μL loop connected to a beta-RAM radioactivity detector, connected to a Compaq™ computer running Laura® data acquisition and analysis software. This enabled online detection and quantification of radioactive peaks. The 10 μM C18 μBondapak™ 3.9 × 300 mm HPLC column (Waters, UK) was used for the all-trans retinoic acid metabolism studies. The HPLC column operating at an ambient temperature was used to separate the metabolites, which were eluted with acetonitrile/1% ammonium acetate in water/acetic acid (75:25:0.1, v/v/v) at a flow rate of 1.9 mL/min. The Ecoscint™ was used as the flow scintillation fluid.
The separated [^3H]-metabolites were quantitatively calculated from the areas under the curves.

The subject of data set [2] is human fetal lung fibroblast (MRC-5) cells. The arrangement: method as in PMID 31899979. Conditions: previously determined ref 28, read-out: Cytotoxicity IC50 on MRC-5 cells; cited from earlier work.
Another data set has as its system C. krusei. The data set can be described thus: Anti-Candida in vitro assay, C. krusei strains. Format: cell-based. Conditions: Pichia kudriavzevii; span over the C. krusei strains tested. How it is done:
Test fungal strains were obtained from the American Type Culture Collection (ATCC) or were clinical isolates from the Laboratory of Parasitology and Medical Mycology, Centre Hospitalier Universitaire (CHU) of Nantes. The strains were maintained on Sabouraud agar slants and were subcultured 24 h before used. The activity of the target compounds 8a–g and 11a–m was determined by the method previously described. Briefly, molecules were diluted in RPMI 1640 medium supplemented with 0.165 M morpholinopropanesulphonic acid (Sigma-Aldrich, Saint-Quentin Fallavier, France), 2% glucose, and antibiotics. Candida suspensions were prepared in RPMI 1640 medium (Sigma-Aldrich, Saint-Quentin Fallavier, France) adjusted to give a final concentration of 10^3 cells/mL, and a 96-well microplate (Nunc, D. Dutscher, Brumath, France) was seeded with 100 µL. Each concentration of molecules (100 µL) to be tested was added (in triplicate) and plates were incubated at 37 °C for 24 h. The cellular viability was evaluated on the Fluorolite 1000 (Dynatech, France) with an excitation at 550 nm and an emission at 590 nm after a 4 h incubation with 10 µL of Alamar Blue®. […] MIC was expressed as the mean of the triplicate values. KTC and FLC were used as standards.

For orientation: IC50 means the point on the concentration scale where inhibition reaches its midpoint. With `O[C@@](Cn1cncn1)(Cn1ccc2ccccc21)c1ccc(Cl)cc1Cl` [(+)-(R)-8g], in “MRC5 toxicity assay”, the IC50 at 96 h was determined as 32 µM. The IC50 in data set [1] turned out to be 34 µM.
Broadly, the melting point is the temperature, or range, at which the solid turns liquid. In the case of `OC(Cn1cncn1)(Cn1ccc2ccccc21)c1ccc(Cl)cc1Cl` (stereo not shown) [Compound 8g, 2-(2,4-Dichlorophenyl)-3-(1H-indol-1-yl)-1-(1H-1,2,4-triazol-1-yl)-propan-2-ol], the melting point is 161 to 162 °C. Also, the IC50 in data set [2] was 35 µM.
For orientation: MIC means the smallest concentration in the dilution series that meets the test's criterion for growth inhibition. Read a high MIC as weaker potency. Take `O[C@](Cn1cncn1)(Cn1ccc2ccccc21)c1ccc(Cl)cc1Cl` [(−)-(S)-8g]: in “MRC5 toxicity assay”, the 50% inhibitory concentration (IC50) at 96 h was 30 µM. The same compound displayed an IC50 in data set [1] of 18 µM. This compound returned an MIC in the data set on C. krusei of 0.039 to 0.167 µg/mL (≈ 0.101 to 0.431 µM).
